# Experimental data reported in patent US20070082939A1, “Methods and compositions for the treatment of neuropathies and related disorders” (priority 2005, published 2007).
# Entries after “also recorded” stand apart in the source; their conditions may differ. Structures can show the parent of a compound that is named as a salt.
# Tests used:
# [1] = system: acute inflammatory pain produced by injection of yeast extract into the rat paw; conditions: cited from earlier work
# [2] = system: Streptozotocin (STZ)-induced diabetes rat model of neuropathy; test: Streptozotocin (STZ)-induced diabetes rat model, paw pressure test; format: in vivo, rats; conditions: 60 minutes after dosing; for mechanical hyperalgesia: nociceptive threshold (paw pressure): STZ diabetic rats, oral, vs vehicle-treated diabetic rats, hydrochloride
# Method: Male Sprague Dawley rats Rj:SD (IOPS Han) weighing 218-260 g at the beginning of the experiment, were included in this study for the induction of diabetes. These were divided into vehicle control and streptozotocin treated groups. The rats were housed in a temperature (19.5-24.5° C.) and relative humidity (45-65%) controlled room with a 12-h light/dark cycle, with ad libitum access to filtered tap water and standard pelleted laboratory chow throughout the study.
# On day 0, diabetes was induced by intraperitoneal injection of streptozotocin (STZ; 75 mg/kg) to the rats. On day 23, to confirm the presence of diabetes in the STZ-administered rats, hyperglycemia was measured using blood glucose strips. Animals with a blood sugar level lower than […] were not used in further investigations.
# Animals found useful for inclusion in additional investigations were dosed orally with bicifadine at the indicated doses, and the nociceptive threshold tested sixty minutes later. The nociceptive threshold was evaluated using a mechanical nociceptive stimulus (paw pressure test). An increasing pressure was applied onto the hindpaw of the animal until the nociceptive response (vocalization or paw withdrawal) was reached. The pain threshold (grams of contact pressure) was measured in both hindpaws.
# Results are expressed as the nociceptive threshold (mean±SEM) in grams of contact pressure for each group, calculated from individual nociceptive thresholds (mean values of the nociceptive thresholds obtained for both hindpaws). Statistical significance between the bicifadine treated groups and the vehicle-treated diabetic group was determined by a […], using the residual variance after a one-way analysis of variance (P<0.05).
# [3] = system: spinal nerve ligation (Chung) model of neuropathic pain; test: Spinal nerve ligation (Chung) model, tactile stimulation with electronic Von Frey probe; format: in vivo, rats; conditions: for effect on mechanical hyperalgesia compared with morphine / mechanical hyperalgesia: force required to induce paw withdrawal, lesioned paw: lesioned paw; for effect on mechanical hyperalgesia compared with morphine: morphine 128 mg/kg p.o., near lethal dose; for mechanical hyperalgesia: force required to induce paw withdrawal, lesioned paw / pain (pressure) threshold in the non-lesioned paw: rats; for mechanical hyperalgesia: force required to induce paw withdrawal, lesioned paw: p.o. at the indicated doses 60 minutes before the test; for pain (pressure) threshold in the non-lesioned paw: p.o., non-lesioned paw (Panel B)
# Method: (§1) Tight ligature of spinal nerves in rats is associated with hyperalgesia, allodynia and spontaneous pain, and thereby provides an accepted model for peripheral neuropathic pain in humans. Male Sprague-Dawley rats Rj:SD (IOPS Han) weighing 218-260 g at the beginning of the procedure were anesthetized (sodium pentobarbital 40 mg/kg i.p.) and an incision at the L4-S2 level was performed to expose the left L5 and L6 spinal nerves, which were then tightly ligated (4-0 silk suture) distal to the dorsal root ganglion and prior to entrance into the sciatic nerve, as first described by Kim and Chung (Pain 50:355-363, 1992). The wound was then sutured, and the rats received an […]. injection of clamoxyl (100 mg/kg […].) and were allowed to recover. 4 weeks after surgery, when the chronic pain state was fully installed, rats were submitted consecutively to tactile and thermal stimulation of both the non-lesioned and the lesioned hindpaws.
# For tactile stimulation, the animal was placed under an inverted acrylic plastic box (18×11.5×13 cm) on a grid floor. The tip of an electronic Von Frey probe (Bioseb, model 1610) was then applied with increasing force to the non-lesioned and lesioned hindpaws and the force inducing paw-withdrawal was automatically recorded. This procedure was carried out 3 times and the mean force per paw was calculated.
# (§2) Behavioral testing was carried out 2 weeks after surgery. Prior to receiving drug treatment all animals were submitted to tactile stimulation and assigned to treatment groups matched on the basis of their pain response. 8 rats were studied per group, and the tests were performed blind.
# (§3) Bicifadine was evaluated at the indicated doses, administered p.o. 60 minutes before the test, and compared with a vehicle control group. Morphine (128 mg/kg p.o.), used as a reference substance, was administered under the same experimental conditions.
# (§4) Data were analyzed by comparing the responses of lesioned paws in the treatment groups with vehicle control group using paired and unpaired Student's t tests.
# (§5) In the instant example, another exemplary, substituted 1-aryl-3-azabicyclo[3.1.0]hexane was evaluated for its ability to alleviate symptoms associated with neuropathy in the spinal nerve ligation (Chung) model of neuropathic pain. In this study, a multiply aryl-subsituted compound as described above, 1-(3,4-dichlorophenyl)-3-azabicyclo[3.1.0]hexane was assayed according to the procedures described above in Example 1. The 1-(3,4-dichlorophenyl)-3-azabicyclo[3.1.0]hexane was administered to test animals at the indicated doses p.o. 60 minutes before the test, and compared with a vehicle control group. Data were analyzed by comparing the responses of lesioned paws in the treatment groups with vehicle control group using paired and unpaired Student's t tests, as described in Example 1.
# [4] = system: spinal nerve ligation (Chung) model of neuropathic pain; test: Spinal nerve ligation (Chung) model, thermal stimulation (infrared radiant source); format: in vivo, rats; conditions: for effect on thermal hyperalgesia compared with morphine / thermal hyperalgesia: paw withdrawal latency, lesioned paw: lesioned paw; for effect on thermal hyperalgesia compared with morphine: morphine 128 mg/kg PO, nearly lethal dose; for thermal hyperalgesia: paw withdrawal latency, lesioned paw / response to application of heat in the non-lesioned paw: rats; for thermal hyperalgesia: paw withdrawal latency, lesioned paw: p.o. at the indicated doses 60 minutes before the test; for response to application of heat in the non-lesioned paw: p.o., non-lesioned paw (Panel B)
# Method: as §1
# For thermal stimulation, the apparatus (Model 7200, Ugo Basile, Italy) consists of individual acrylic plastic boxes (17×11×13 cm) placed upon an elevated glass floor. A rat was placed in the box and left free to habituate for 10 minutes. A mobile infrared radiant source (96±10 mW/cm^2) was then focused under the non-lesioned and lesioned hindpaws and the paw-withdrawal latency was automatically recorded. In order to prevent tissue damage the heat source was automatically turned off after 45 seconds.
# as §2, §3, §4, §5
# [5] = system: nociceptive pain following dental surgery; conditions: humans; cited from earlier work
# [6] = listed as Bicfifadine, hydrochloride
# [7] = vs vehicle, listed as bicifadine HCl, hydrochloride
# [8] = morphine 128 mg/kg p.o. (nearly lethal dose), vs vehicle
compound,measurement,setting,value
"Cc1ccc([C@]23CNC[C@H]2C3)cc1 (racemic) [bicifadine, (±)-1-(4-methylphenyl)-3-azabicyclo[3.1.0]hexane hydrochloride]",activity in the Randall-Selitto test,[1],potent and active
same,nociceptive threshold (paw pressure),"[2]; 12.5 and 25 mg/kg oral, vs vehicle treated diabetic animals",significant (P<0.05) increase
same,mechanical hyperalgesia: nociceptive threshold (paw pressure),[2],reduces mechanical hyperalgesia; also recorded: effectively alleviates neuropathy symptoms (mechanical hyperalgesia)
same,mechanical hyperalgesia: nociceptive threshold (paw pressure),[2]; listed as Bicifadine,increased the amount of pressure an animal could withstand; also recorded: restore the amount of pressure tolerated in these diabetic rats to values approaching those obtained in control animals
same,"force required to induce paw withdrawal, lesioned paw","[3]; 50 mg/kg PO, 60 minutes before the test, vs vehicle treated lesioned paws",significant increase
same,effect on mechanical hyperalgesia compared with morphine,[3]; hydrochloride,more potent than morphine
same,effect on mechanical hyperalgesia compared with morphine,[3]; [6],as effective as a near lethal dose morphine
same,"mechanical hyperalgesia: force required to induce paw withdrawal, lesioned paw","[3]; vs vehicle, hydrochloride",statistically significant increase; also recorded: effectively suppressed
same,"mechanical hyperalgesia: force required to induce paw withdrawal, lesioned paw",[3]; [7],suppresses mechanical hyperalgesia
same,pain (pressure) threshold in the non-lesioned paw,[3]; hydrochloride,does not affect; also recorded: no effect
same,"paw withdrawal latency in response to a thermal stimulus, lesioned paw","[4]; all doses tested (12.5-100 mg/kg PO), vs vehicle",significant increase
same,effect on thermal hyperalgesia compared with morphine,[4]; hydrochloride,approximately equivalent
same,effect on thermal hyperalgesia compared with morphine,[4]; [6],as effective as a near lethal dose morphine
same,"thermal hyperalgesia: paw withdrawal latency, lesioned paw","[4]; vs vehicle, hydrochloride",effectively suppressed
same,"thermal hyperalgesia: paw withdrawal latency, lesioned paw",[4]; [7],suppresses thermal hyperalgesia
same,response to application of heat in the non-lesioned paw,[4]; hydrochloride,does not affect; also recorded: no effect
same,relief of pain following dental surgery compared with codeine and tramadol,[5],as effective as codeine and tramadol
"Clc1ccc(C23CNCC2C3)cc1Cl (centres unmarked) [1-(3,4-dichlorophenyl)-3-azabicyclo[3.1.0]hexane]","mechanical hyperalgesia: force required to induce paw withdrawal, lesioned paw",[3]; vs vehicle,potently suppressed tactile allodynia; also recorded: significant increase in the force required to induce paw withdrawal; also recorded: suppresses mechanical hyperalgesia
same,pain (pressure) threshold in the non-lesioned paw,[3],not due to debilitation of the animal; also recorded: no effect
same,"thermal hyperalgesia: paw withdrawal latency, lesioned paw",[4]; vs vehicle,dose-dependently suppressed thermal hyperalgesia; also recorded: significant increase in paw withdrawal latency; also recorded: suppresses thermal hyperalgesia
same,response to application of heat in the non-lesioned paw,[4],not due to debilitation of the animal; also recorded: no effect
CC(=O)Oc1ccccc1C(=O)O [aspirin],activity in the Randall-Selitto test,[1],active
COc1ccc2c3c1O[C@H]1[C@@H](O)C=C[C@H]4[C@@H](C2)N(C)CC[C@@]341 [codeine],activity in the Randall-Selitto test,[1],active
"CN1CC[C@]23c4c5ccc(O)c4O[C@H]2[C@@H](O)C=C[C@H]3[C@H]1C5 [morphine, reference compound]",activity in the Randall-Selitto test,[1],active
same,"threshold for nociceptive response, mechanical pressure, lesioned paw",[3]; [8],significant increase
same,"threshold for nociceptive response, thermal stimulus, lesioned paw",[4]; [8],significant increase
